In US9969726B2, “Metabotropic glutamate receptor negative allosteric modulators (NAMS) and uses thereof” (Sanford-Burnham Medical Research Institute, priority 2014, dated 2018):
Where two headings read alike, the source gives them in different places.

What was measured:
rat mGlu2 receptor = rat mGlu2 receptor (Rattus norvegicus (Rat), UniProt P31421); test: mGlu2 in vitro GIRK thallium flux assay; type: cell-based; details: NAM, EC80 glutamate, HEK-293 GIRK cells
Summary of the method: (§1)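 Cells expressing rat mGlu2 or mGlu3 with GIRK, plated overnight at 37 °C. Test compounds (0.3% DMSO, 10-point 1:3 series) preincubated 2.5 or 60 min, then thallium buffer plus EC80 glutamate added. Fluorescence slope 5–15 s after addition, normalised to vehicle and maximal agonist, fitted by four-parameter logistic.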

rat mGlu3 receptor = rat mGlu3 receptor (Rattus norvegicus (Rat), UniProt P31422); test: mGlu3 in vitro GIRK thallium flux assay; type: cell-based; details: NAM; 2.5 min compound incubation; EC80 glutamate; HEK-293 GIRK cells
Summary of the method: as §1

[1] = 2.5 min compound incubation, read-out: mGlu2 EC50 (μM) (2.5 min)
[2] = mGlu2 EC50 (μM) (60 min), 60 min compound incubation
[3] = read-out: mGlu2 EC50 (μM) (60 min), 60 min compound incubation

Chain of rat mGlu2 receptor (P31421 19-872): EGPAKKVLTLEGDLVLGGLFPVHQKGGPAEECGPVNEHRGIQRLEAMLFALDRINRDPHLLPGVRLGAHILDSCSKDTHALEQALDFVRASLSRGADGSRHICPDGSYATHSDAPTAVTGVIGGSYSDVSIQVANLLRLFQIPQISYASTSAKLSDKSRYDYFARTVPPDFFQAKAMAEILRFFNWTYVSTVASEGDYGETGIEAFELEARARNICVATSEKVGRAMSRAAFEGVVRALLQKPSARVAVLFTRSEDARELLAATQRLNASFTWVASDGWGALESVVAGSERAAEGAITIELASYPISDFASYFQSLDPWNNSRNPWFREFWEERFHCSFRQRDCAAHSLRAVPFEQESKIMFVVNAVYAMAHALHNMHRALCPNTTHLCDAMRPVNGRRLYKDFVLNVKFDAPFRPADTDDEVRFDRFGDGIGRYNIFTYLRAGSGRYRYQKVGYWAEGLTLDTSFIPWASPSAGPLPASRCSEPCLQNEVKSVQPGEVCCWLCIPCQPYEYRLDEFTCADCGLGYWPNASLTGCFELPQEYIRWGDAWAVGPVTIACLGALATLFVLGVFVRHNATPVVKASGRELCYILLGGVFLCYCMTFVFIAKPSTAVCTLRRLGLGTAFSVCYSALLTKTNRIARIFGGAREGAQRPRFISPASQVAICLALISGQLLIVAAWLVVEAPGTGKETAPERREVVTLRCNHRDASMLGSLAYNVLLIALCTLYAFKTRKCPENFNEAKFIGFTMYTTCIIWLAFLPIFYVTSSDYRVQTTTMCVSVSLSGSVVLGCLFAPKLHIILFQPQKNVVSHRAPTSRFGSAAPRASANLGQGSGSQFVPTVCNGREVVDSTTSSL
Chain of rat mGlu3 receptor (P31422 23-879): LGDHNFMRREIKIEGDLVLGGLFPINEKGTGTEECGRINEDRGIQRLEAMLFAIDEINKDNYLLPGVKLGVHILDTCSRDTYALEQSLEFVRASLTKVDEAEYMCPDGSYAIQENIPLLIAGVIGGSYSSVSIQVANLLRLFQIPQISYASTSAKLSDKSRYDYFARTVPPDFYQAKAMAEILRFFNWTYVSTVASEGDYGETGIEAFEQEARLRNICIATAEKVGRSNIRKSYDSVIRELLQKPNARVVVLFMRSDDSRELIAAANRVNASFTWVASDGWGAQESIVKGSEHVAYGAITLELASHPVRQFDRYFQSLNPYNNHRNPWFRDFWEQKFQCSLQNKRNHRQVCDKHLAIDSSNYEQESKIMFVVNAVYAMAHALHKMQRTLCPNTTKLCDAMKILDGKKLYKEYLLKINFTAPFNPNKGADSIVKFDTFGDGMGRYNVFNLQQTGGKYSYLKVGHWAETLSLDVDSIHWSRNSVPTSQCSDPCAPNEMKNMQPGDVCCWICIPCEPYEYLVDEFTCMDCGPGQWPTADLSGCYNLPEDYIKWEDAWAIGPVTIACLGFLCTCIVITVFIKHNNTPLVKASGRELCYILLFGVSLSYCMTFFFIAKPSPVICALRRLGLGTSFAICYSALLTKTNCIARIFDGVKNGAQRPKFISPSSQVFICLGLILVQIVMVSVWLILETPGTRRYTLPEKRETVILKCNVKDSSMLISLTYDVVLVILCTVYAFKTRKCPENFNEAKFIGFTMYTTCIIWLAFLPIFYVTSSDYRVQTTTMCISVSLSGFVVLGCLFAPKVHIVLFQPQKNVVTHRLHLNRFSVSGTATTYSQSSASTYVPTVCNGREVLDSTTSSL

EC50 (rat mGlu2 receptor; [2]) | Compound | EC50 (rat mGlu2 receptor; [1]) | EC50 (rat mGlu3 receptor) | EC50 (rat mGlu2 receptor; [3])
3.67 µM | O=C(O)c1cccc(-c2cccc(-c3nc(-c4cccs4)n(-c4ccccc4)n3)c2)c1 [Example 53, 3′-(1-Phenyl-5-(thiophen-2-yl)-1H-1,2,4-triazol-3-yl)-[1,1′-biphenyl]-3-carboxylic Acid] | > 10 µM | 4.29 µM | 
2.71 µM | O=C(O)c1cccc(-c2cccc(-c3nc(-c4ccccc4)n(Cc4ccccc4)n3)c2)c1 [Example 54, 3′-(1-Benzyl-5-phenyl-1H-1,2,4-triazol-3-yl)-[1,1′-biphenyl]-3-carboxylic Acid] | > 10 µM | 3.9 µM | 
6.58 µM | COc1ccc(-n2nc(-c3cccc(-c4cccc(C(=O)O)c4)c3)nc2-c2ccccc2)cc1 [Example 55, 3′-(1-(4-Methoxyphenyl)-5-phenyl-1H-1,2,4-triazol-3-yl)-[1,1′-biphenyl]-3-carboxylic Acid] | > 10 µM | 2.96 µM | 
> 10 µM | O=C(O)c1cccc(-c2cccc(-c3nc(-c4ccccc4)n(-c4cccc(F)c4)n3)c2)c1 [Example 56, 3′-(1-(3-Fluorophenyl)-5-phenyl-1H-1,2,4-triazol-3-yl)-[1,1′-biphenyl]-3-carboxylic Acid] | 3.22 µM | > 10 µM | 
> 10 µM | O=C(O)c1cccc(-c2cccc(-c3nc(-c4ccccc4)n(-c4cccc5ccccc45)n3)c2)c1 [Example 57, 3′-(1-(Naphthalen-1-yl)-5-phenyl-1H-1,2,4-triazol-3-yl)-[1,1′-biphenyl]-3-carboxylic Acid] | > 10 µM | > 10 µM | 
> 10 µM | O=C(O)c1cccc(-c2cccc(-c3nc(-c4ccc(C(F)(F)F)nc4)n(-c4ccccc4)n3)c2)c1 [Example 58, 3′-(1-Phenyl-5-(6-(trifluoromethyl)pyridin-3-yl)-1H-1,2,4-triazol-3-yl)-[1,1′-biphenyl]-3-carboxylic Acid] | > 10 µM | 5.56 µM | 
3.78 µM | O=C(O)c1cccc(-c2cccc(-c3nc(-c4ccoc4)n(-c4ccccc4)n3)c2)c1 [Example 59, 3′-(5-(Furan-3-yl)-1-phenyl-1H-1,2,4-triazol-3-yl)-[1,1′-biphenyl]-3-carboxylic acid] | > 10 µM | > 10 µM | 
> 10 µM | O=C(O)c1ccc(-c2cccc(-c3nc(-c4ccccc4)n(-c4ccccc4)n3)c2)cc1 [Example 60, 3′-(1,5-Diphenyl-1H-1,2,4-triazol-3-yl)-[1,1′-biphenyl]-4-carboxylic Acid] | > 10 µM | 5.3 µM | 
 | O=C(O)c1ccccc1-c1cccc(-c2nc(-c3ccccc3)n(-c3ccccc3)n2)c1 [Example 61, 3′-(1,5-Diphenyl-1H-1,2,4-triazol-3-yl)-[1,1′-biphenyl]-2-carboxylic Acid] | > 30 µM | > 10 µM | > 30 µM
> 30 µM | O=C(O)c1ccoc1-c1cccc(-c2nc(-c3ccccc3)n(-c3ccccc3)n2)c1 [Example 62, 2-(3-(1,5-Diphenyl-1H-1,2,4-triazol-3-yl)phenyl)furan-3-carboxylic Acid] | > 10 µM | 0.21 µM | 
> 10 µM | O=C(O)c1ccc(F)c(-c2cccc(-c3nc(-c4ccccc4)n(-c4ccccc4)n3)c2)c1 [Example 63, 3′-(1,5-Diphenyl-1H-1,2,4-triazol-3-yl)-6-fluoro-[1,1′-biphenyl]-3-carboxylic acid] | > 10 µM | 4.45 µM | 
> 30 µM | CC(C)n1nc(-c2cccc(-c3cccc(C(=O)O)c3)c2)nc1-c1ccccc1 [Example 64, 3′-(1-Isopropyl-5-phenyl-1H-1,2,4-triazol-3-yl)-[1,1′-biphenyl]-3-carboxylic acid] | > 10 µM | > 10 µM | 
> 30 µM | O=C(O)c1cccc(-c2cccc(-c3n[nH]c(-c4ccccc4)n3)c2)c1 [Example 65, 3′-(5-Phenyl-1H-1,2,4-triazol-3-yl)-[1,1′-biphenyl]-3-carboxylic Acid] | > 10 µM | > 30 µM | 
 | O=C(O)c1cccc(-c2cccc(-c3nc(-c4ccccc4)nn3-c3ccccc3)c2)c1 [Example 66, 3′-(1,3-Diphenyl-1H-1,2,4-triazol-5-yl)-[1,1′-biphenyl]-3-carboxylic Acid] | > 10 µM | > 10 µM | > 10 µM
 | O=C(O)c1cccc(-c2cccc(-c3cn(-c4ccccc4)c(-c4ccccc4)n3)c2)c1 [Example 67, 3′-(1,2-Diphenyl-1H-imidazol-4-yl)-[1,1′-biphenyl]-3-carboxylic Acid] | > 10 µM | > 10 µM | > 10 µM
 | O=C(O)c1cccc(-c2cccc(-c3cc(-c4ccccc4)[nH]n3)c2)c1 [Example 68, 3′-(5-Phenyl-1H-pyrazol-3-yl)-[1,1′-biphenyl]-3-carboxylic Acid] | > 10 µM | > 10 µM | > 30 µM
 | O=C(O)c1cccc(-c2cccc(-c3nc(-c4ccc(C(F)(F)F)nc4)cc(C(F)(F)F)n3)c2)c1 [Example 69, 3′-(4-(Trifluoromethyl)-6-(6-(trifluoromethyl)pyridin-3-yl)pyrimidin-2-yl)biphenyl-3-carboxylic Acid] | 0.95 µM | 1.07 µM | 0.11 µM
 | O=C(O)c1cc(-c2cccc(-c3nc(-c4ccc(C(F)(F)F)nc4)cc(C(F)(F)F)n3)c2)ccc1Cl [Example 70, 4-Chloro-3′-(4-(trifluoromethyl)-6-(6-(trifluoromethyl)pyridin-3-yl)pyrimidin-2-yl)biphenyl-3-carboxylic Acid] | 1.26 µM | 1.58 µM | 0.2 µM
 | O=C(O)c1ccc(-c2cccc(-c3nc(-c4ccc(C(F)(F)F)nc4)cc(C(F)(F)F)n3)c2)cc1 [Example 71, 3′-(4-(Trifluoromethyl)-6-(6-(trifluoromethyl)pyridin-3-yl)pyrimidin-2-yl)biphenyl-4-carboxylic Acid] | > 10 µM | > 10 µM | > 10 µM
 | O=C(O)c1ccccc1-c1cccc(-c2nc(-c3ccc(C(F)(F)F)nc3)cc(C(F)(F)F)n2)c1 [Example 72, 3′-(4-(Trifluoromethyl)-6-(6-(trifluoromethyl)pyridin-3-yl)pyrimidin-2-yl)biphenyl-2-carboxylic Acid] | > 10 µM | > 10 µM | > 10 µM
 | O=C(O)c1ccc(-c2cccc(-c3nc(-c4ccc(C(F)(F)F)nc4)cc(C(F)(F)F)n3)c2)cc1Cl [Example 74, 3-Chloro-3′-(4-(trifluoromethyl)-6-(6-(trifluoromethyl)pyridin-3-yl)pyrimidin-2-yl)biphenyl-4-carboxylic Acid] | 6.76 µM | 6.52 µM | > 10 µM
 | O=C(O)c1cc(-c2cccc(-c3nc(-c4ccc(C(F)(F)F)nc4)cc(C(F)(F)F)n3)c2)cc([N+](=O)[O-])c1 [Example 75, 5-Nitro-3′-(4-(trifluoromethyl)-6-(6-(trifluoromethyl)pyridin-3-yl)pyrimidin-2-yl)biphenyl-3-carboxylic Acid] | 1.27 µM | > 10 µM | 0.5 µM
 | COc1ccc(C(=O)O)cc1-c1cccc(-c2nc(-c3ccc(C(F)(F)F)nc3)cc(C(F)(F)F)n2)c1 [Example 77, 6-Methoxy-3′-(4-(trifluoromethyl)-6-(6-(trifluoromethyl)pyridin-3-yl)pyrimidin-2-yl)biphenyl-3-carboxylic Acid] | 0.96 µM | 1.59 µM | 0.29 µM
 | O=C(O)c1ccc(-c2cccc(-c3nc(-c4ccc(C(F)(F)F)nc4)cc(C(F)(F)F)n3)c2)c(Cl)c1 [Example 78, 2-Chloro-3′-(4-(trifluoromethyl)-6-(6-(trifluoromethyl)pyridin-3-yl)pyrimidin-2-yl)biphenyl-4-carboxylic Acid] | 3.49 µM | 6.32 µM | 1.18 µM
 | O=C(O)c1ccc(-c2cccc(-c3nc(-c4ccc(C(F)(F)F)nc4)cc(C(F)(F)F)n3)c2)s1 [Example 80, 5-(3-(4-(Trifluoromethyl)-6-(6-(trifluoromethyl)pyridin-3-yl)pyrimidin-2-yl)phenyl)thiophene-2-carboxylic Acid] | 0.78 µM | 2.4 µM | 0.13 µM
 | O=C(O)c1ccc(-c2ccc(-c3nc(-c4ccc(C(F)(F)F)nc4)cc(C(F)(F)F)n3)cc2)cc1 [Example 81, 4′-(4-(Trifluoromethyl)-6-(6-(trifluoromethyl)pyridin-3-yl)pyrimidin-2-yl)biphenyl-4-carboxylic Acid] | 3.78 µM | 2.13 µM | 0.44 µM
 | O=C(O)c1cc(-c2ccc(-c3nc(-c4ccc(C(F)(F)F)nc4)cc(C(F)(F)F)n3)cc2)ccc1F [Example 82, 4-Fluoro-4′-(4-(trifluoromethyl)-6-(6-(trifluoromethyl)pyridin-3-yl)pyrimidin-2-yl)biphenyl-3-carboxylic Acid] | 1.42 µM | 1.32 µM | 0.49 µM
 | O=C(O)c1cc(-c2ccc(-c3nc(-c4ccc(C(F)(F)F)nc4)cc(C(F)(F)F)n3)cc2)ccc1Cl [Example 83, 4-Chloro-4′-(4-(trifluoromethyl)-6-(6-(trifluoromethyl)pyridin-3-yl)pyrimidin-2-yl)biphenyl-3-carboxylic Acid] | 2.95 µM | > 10 µM | 1.23 µM
 | O=C(O)c1cc(F)cc(-c2ccc(-c3nc(-c4ccc(C(F)(F)F)nc4)cc(C(F)(F)F)n3)cc2)c1 [Example 84, 5-Fluoro-4′-(4-(trifluoromethyl)-6-(6-(trifluoromethyl)pyridin-3-yl)pyrimidin-2-yl)biphenyl-3-carboxylic Acid] | 2.79 µM | 4.91 µM | 
